{
  "source": "paper PMC7915902",
  "about": "“Preclinical Evaluation of [^18F]FACH in Healthy Mice and Piglets: An ^18F-Labeled Ligand for Imaging of Monocarboxylate Transporters with PET” (International Journal of Molecular Sciences, 2021)",
  "key": {"[1]": {"assay": "Extended single dose toxicity study in rats", "format": "in vivo, rat", "procedure": "The extended single dose toxicity studies of FACH in male (n = 15) and female (n = 15) outbred Wistar rats were performed in the Biological Testing Laboratory (BTL) in Russia (Study Number 680/19). The test item FACH-Na was administered by single bolus i.v. injection at doses of 6.2, 62 and 620 μg/kg body weight (bw). Mortality, clinical pathology parameters (hematology and serum chemistry), organ weights and microscopic tissue parameters were investigated 24 h and two weeks after treatment."}, "MCTs [2]": {"test_system": "MCTs", "assay": "Dynamic PET/MRI in mice with pre-treatment", "format": "in vivo, mouse", "settings": "for AUC0–60 min gall bladder / AUC0–60 min kidney cortex / AUC0–60 min liver / AUC0–60 min small intestine / AUC0–60 min whole blood: mouse, in vivo", "procedure": "(§1) The biodistribution of [^18F]FACH in mice was assessed by small animal PET (Nanoscan, Mediso, Budapest, Hungary) with dynamic 60 min emission recordings, followed by T1 weighted GRE MR (TR = 15.0 ms, TE = 2.4 ms, FA = 25°) imaging for anatomical correlations and attenuation correction. The mice (n = 20) weighing 32.2 ± 2.9 g were anaesthetised with 2% isoflurane in 60% oxygen, and placed on a thermostatically heated animal bed. The animals then received i.v. injections of 0.9% saline (control), reference compound (10 mg/kg), or α-CCA-Na (25 mg/kg) ten min prior or 20 min after (displacement studies) [^18F]FACH administration (2.3–8.6 MBq, 0.5–11.2 nmol/kg). List mode PET data were binned as a series of attenuation-corrected sinogram frames (12 × 10 s, 6 × 30 s, 5 × 60 s and 10 × 300 s) and were reconstructed by Ordered Subset Expectation Maximization (OSEM3D) with four iterations, six subsets and a voxel size of 0.4 mm³ (Nucline v2.01, Mediso).\n(§2) The analysis of reconstructed datasets was performed with PMOD software (v4.103, PMOD Technologies LLC, Zurich, Switzerland).\n(§3) Data are shown in mean ± standard deviation (SD). Group differences were tested by Student’s t-test, with p < 0.05 designated as significant. Area Under the Curves (AUCs) and corresponding 95% confidence intervals (CI95%s) were calculated with GraphPad Prism (v.8.2) following the assumptions described by Gagnon et al.."}, "MCTs [3]": {"test_system": "MCTs", "assay": "Autoradiographic competition study in mouse kidney cryosections", "format": "binding", "settings": "300 nM competitor, 1 nM [18F]FACH", "procedure": "Cryosections from the mouse kidney (10 µm) were cut on a microtome (Microm HM560, Thermo Scientific Microm, Fisher Scientific GmbH, Schwerte, Germany), mounted on glass slides (SuperFrost, Thermo Scientific Menzel, Fisher Scientific GmbH), dried for two hours at room temperature, and stored at −25 °C. Before the binding experiment, the tissue slices were dried under a stream of cold air, pre-incubated with PBS (pH 7.4) for 15 min at room temperature and dried again before incubation with PBS containing [^18F]FACH (1.2 nM) without (total binding) and with different concentrations of FACH-Na (10 µM–0.1 nM; homologous competition) for 60 min. Specific binding to MCTs of [^18F]FACH in cryosections of mouse kidney was determined after co-incubation of 1 nM [^18F]FACH with vehicle or 300 nM α-CCa-Na or 300 nM reference compound (homologous competition).\nThe incubation was terminated by washing with ice-cold buffer (50 mM TRIS-HCl, pH 7.4) twice for two minutes followed by dipping in ice-cold demineralized water for 5 s and drying under a stream of cold air. […] KD and Bmax values were calculated by the simplified Cheng and Prusoff equation (http://www3.uah.es/farmamol/Public/GraphPad/radiolig.htm, accessed on 5 February 2021):(1) KD=Ki=IC50−Radioligand (M) (2) Bmax=Top−Bottom/Radioligand (M)/(KD+Radioligand (M))"}, "MCT1 [4]": {"test_system": "MCT1", "design": "method as in PMID 31017677", "settings": "L-[14C]lactate uptake, rat brain endothelial cells; read-out: IC50 towards MCT1; cited from earlier work"}, "MCT4": {"test_system": "MCT4", "design": "method as in PMID 31017677", "settings": "L-[14C]lactate uptake, MDA-MB231 cells; read-out: IC50 towards MCT4; cited from earlier work"}, "MCT1 [5]": {"test_system": "MCT1", "design": "method as in PMID 8779821", "settings": "cited from earlier work"}, "MCTs [6]": {"test_system": "MCTs", "format": "in vivo, piglet", "procedure": "The piglets (n = 6) were inititally anaesthetised with intramuscular injections of stresnil and ursotamin, and anaesthesia was maintained with intravenous ursotamin and midazolam, as required. The hematocrit was measured in an ear vein blood sample collected just prior to imaging. Either saline (n = 3) or 25 mg/kg α-CCA-Na (n = 3) in saline was administrated ten min before i.v. administration of [^18F]FACH (261–327 MBq, corresponding to 218–852 pmol/kg) via an ear vein. Imaging was performed with a simultaneous hybrid PET/MR system (mMR Biograph; Siemens, Erlangen, Germany) equipped with dedicated phased-array surface. PET data were reconstructed into a 128 × 128 matrix (voxel size: 1.40 × 1.40 × 2.03 mm^3) using the built-in OSEM3D algorithm with eight iterations, 21 subsets, and a 3-mm Gaussian filter. The attenuation and decay corrected dynamic sequence consisted of 32 frames as follows: 1 × 15, 11 × 30, 1 × 45, 5 × 60, 1 × 90, 5 × 120, 1 × 180, 4 × 240, 1 × 300, 2 × 360 s, whereas activity concentrations in VOIs are represented in units of SUV or percentage of injected dose (%/ID). After completing the dynamic PET recording, piglets were euthanized with an i.v. overdose of T61 (Intervet Deutschland GmbH, Unterschleißheim, Germany) and tissues were sampled for radio-metabolism studies in selected animals.\nas §2, §3"}, "[7]": {"assay": "Metabolism and renal excretion of [18F]FACH in piglets (radio-HPLC, graphical analysis)", "settings": "piglet pre-treated with α-CCA-Na, 60 min p.i.", "experimental": "(§6) Radio-metabolites were analyzed by analytical and semi-preparative HPLC on a JASCO LC-2000 system (JASCO Labor- und Datentechnik, Gross-Umstadt, Germany), consisting of a PU-2080 Plus pump, AS-2055 Plus auto injector (100 μL sample loop) or a manual injection valve with a 5 mL sample loop, and a UV-2070 Plus detector coupled with a gamma radioactivity HPLC detector (Gabi Star, Raytest Isotopenmessgeräte GmbH, Straubenhardt, Germany). Data analysis was performed with the Galaxie chromatography software (Agilent Technologies, Santa Clara, CA, USA). […] For analytical and semi-preparative radio-HPLC analyses, Reprosil-Pur columns (C18-AQ 250 × 4.6 mm; 5 μm; and C18-AQ 150 × 4.6 mm; 10 μm; Dr. Maisch HPLC GmbH; Ammerbuch-Entringen, Germany) were used. Acetonitrile (ACN) mixed with a 20 mM aqueous solution of ammonium acetate (NH4OAc) was used as eluent.\n(§7) In corresponding piglet studies (n = 5), plasma was separated from the arterial blood samples drawn during the PET recordings at certain time points.\n(§8) In piglet studies, similar procedures were implemented for preparing samples from plasma collected at 15, 30, 45 and 60 min p.i., with the exception of collecting the urine sample only at 60 min p.i. Additionally, in order to measure the radio-metabolites in the piglet kidney, the tissue was resected at 60 min p.i. and after washing in PBS, samples of the kidney cortex and medulla were isolated and homogenized in demineralized water (2 mL/g tissue) using a borosilicate glass mortar with ten strokes of a PTFE plunger at 1000 rpm (Potter S, Homogenizer, B. Braun Biotech, Sartorius AG, Göttingen, Germany). Protein precipitation was performed by addition of ice-cold ACN/H2O at a ratio of 4:1 (v/v) of organic solvent to each tissue sample. The samples were vortexed for 3 min, placed on ice for 3 min, and the suspensions were centrifuged at 12,000 rpm at 4 °C for 5 min. For the second extraction, the precipitates were washed with 200 μL of the solvent mixture and subjected to the same procedure. The combined supernatants (total volume between 68 mL) were concentrated at 70 °C under argon flow to a final volume of approximately 2 mL and analyzed by semi-preparative RP radio-HPLC. […] The analyses were performed in gradient mode using 10% ACN/20 mM NH4OAc (aq.) as eluent A and 90% ACN/20 mM NH4OAc (aq.) as eluent B under the following conditions:\n(§9) To determine the percentage of the radioactivity in the supernatants compared to the total radioactivity aliquots were taken at each step and, as well as the precipitates, quantified by gamma counting.\n(§10) By interpolation of the measured radio-metabolite fractions from the piglet PET studies, the continuous TACs for [^18F]FACH and its radio-metabolites were calculated. Subsequently, the magnitudes of the whole body rate constant for [^18F]FACH metabolism (k0) and the elimination rate constant for the radio-metabolites (k−1) under control and pre-treated conditions were calculated as described previously [32]. Graphical analysis of the integrals of the plasma time-concentration series of PET tracers and their radio-metabolite(s) follow a linear relationship [32, 47], where the ordinate intercept is equal to the whole body fractional rate constant for the metabolism of the parent, designated k0 (min^−1). The linear regression slope corresponds to the fractional rate constant for the elimination of the radio-metabolite from circulation, designated k−1 (min^−1), which indicates the renal clearance of the radio-metabolite."}, "MCTs [8]": {"test_system": "MCTs", "assay": "PET displacement study in mice", "format": "in vivo, mouse", "procedure": "as §1, §2"}, "MCTs [9]": {"test_system": "MCTs", "assay": "Compartmental kinetic modelling of PET data in mice", "format": "in vivo, mouse", "settings": "kidney cortex, 2-TCM, [18F]FACH after α-CCA-Na pre-treatment", "procedure": "(§4) Table 4 includes the results of 1-tissue-compartment kinetic modelling (1-TCM) of [^18F]FACH in the kidney cortex and the liver of the control and pre-treated mouse groups (α-CCA-Na and reference compound). […] The BPND was estimated as the ratio of [VT(control)/VT(pre-treatment)] − 1.\n(§5) Kinetic analysis of reconstructed datasets was performed with PMOD software. First, image derived arterial input functions (IDIFs) were obtained from the left ventricle in mice and from an artery close to the kidney in piglet studies. IDIFs were corrected for partial volume effects, plasma fraction from hematocrit values (individually determined for each piglet directly before PET imaging; for mice set to 0.51 according to CD-1 Mouse Hematology sheet from Charles River Laboratories, 2011) and radio-metabolites (measured for piglets, and set to zero for mice). Tri-exponential metabolite-corrected fitted input functions were used for one and two tissue compartment modelling (1-TCM/2-TCM) of time activity curves (TACs) in tissue volumes of interest (VOIs). For both species the specific blood volume was set to 0.15 mL g^−1 in the kidney cortex and 0.128 mL g^−1 in the liver, according to published values."}, "[10]": {"settings": "in vivo", "experimental": "as §6, §7, §8, §9, §10"}, "MCTs [11]": {"test_system": "MCTs", "assay": "Compartmental kinetic modelling of PET data in piglets", "format": "in vivo, piglet", "settings": "living piglets, α-CCA-Na dose", "procedure": "as §4, §5"}, "[12]": {"settings": "mice, reference compound 10 mg/kg pre-treatment"}},
  "note": "pIC50: −log10 of the molar value. Read-outs that look alike come from different tables or passages of the source.",
  "data": [
    {"molecule": "CCCN(CCCF)c1ccc(/C=C(\\C#N)C(=O)[O-])c(OC)c1.[Na+]", "note": "[FACH-Na]", "values": [
      {"measurement": "no-observed-adverse-effect-level (NOAEL)", "setting": "[1]; Wistar rats, single bolus i.v.", "value": 620, "unit": "µg FACH-Na/kg bodyweight"},
      {"measurement": "NOAEL relative to the equivalent to the human dose (0.1 µg/kg)", "setting": "[1]; rats", "value": "approximately 1000 fold"},
      {"measurement": "reduction of [18F]FACH AUC0–60min in kidney cortex vs control", "setting": "MCTs [2]; [12]", "value": 79, "unit": "%"},
      {"measurement": "reduction of [18F]FACH AUC0–60min in liver vs control", "setting": "MCTs [2]; [12]", "value": 44, "unit": "%"},
      {"measurement": "AUC0–60 min gall bladder", "setting": "MCTs [2]; 10 mg/kg", "value": 1388, "unit": "SUV min"},
      {"measurement": "AUC0–60 min kidney cortex", "setting": "MCTs [2]; 10 mg/kg", "value": 62, "unit": "SUV min"},
      {"measurement": "AUC0–60 min liver", "setting": "MCTs [2]; 10 mg/kg", "value": 250, "unit": "SUV min"},
      {"measurement": "AUC0–60 min small intestine", "setting": "MCTs [2]; 10 mg/kg", "value": 405, "unit": "SUV min"},
      {"measurement": "AUC0–60 min whole blood", "setting": "MCTs [2]; 10 mg/kg", "value": 125, "unit": "SUV min"},
      {"measurement": "displacement of [18F]FACH", "setting": "MCTs [3]", "value": 41, "unit": "%"}
    ]},
    {"molecule": "CCCN(CCCF)c1ccc(/C=C(\\C#N)C(=O)O)c(OC)c1", "note": "[FACH]", "values": [
      {"measurement": "pIC50", "setting": "MCT1 [4]", "value": 7.96},
      {"measurement": "pIC50", "setting": "MCT4", "value": 8.19}
    ]},
    {"molecule": "N#CC(=Cc1ccc(O)cc1)C(=O)O", "note": "[α-CCA, α-cyano-4-hydroxycinnamic acid]", "values": [
      {"measurement": "selectivity for MCT1 (MCT1/4) compared to the other subtypes", "setting": "MCT1 [5]", "value": "ten-fold higher selectivity"}
    ]},
    {"molecule": "N#CC(=Cc1ccc(O)cc1)C(=O)[O-].[Na+]", "note": "[α-CCA-Na, reference compound]", "values": [
      {"measurement": "AUC0–60 min gall bladder", "setting": "MCTs [6]; in vivo, 25 mg/kg", "value": 4453, "unit": "SUV min"},
      {"measurement": "AUC0–60 min kidney cortex", "setting": "MCTs [6]; in vivo, 25 mg/kg", "value": 178, "unit": "SUV min"},
      {"measurement": "AUC0–60 min kidney medulla", "setting": "MCTs [6]; in vivo, 25 mg/kg", "value": 1264, "unit": "SUV min"},
      {"measurement": "AUC0–60 min liver", "setting": "MCTs [6]; in vivo, 25 mg/kg", "value": 286, "unit": "SUV min"},
      {"measurement": "AUC0–60 min plasma", "setting": "MCTs [6]; in vivo, 25 mg/kg", "value": 40, "unit": "SUV min"},
      {"measurement": "AUC0–60 min vertebrae", "setting": "MCTs [6]; in vivo, 25 mg/kg", "value": 100, "unit": "SUV min"},
      {"measurement": "kidney uptake blocked by α-CCA-Na pre-treatment", "setting": "MCTs [6]; piglets", "value": "about 60%"},
      {"measurement": "reduction of [18F]FACH AUC0–60min in kidney medulla", "setting": "MCTs [6]; piglets, α-CCA-Na 25 mg/kg pre-treatment", "value": 50, "unit": "%"},
      {"measurement": "parent fraction of [18F]FACH in kidney cortex", "setting": "[7]", "value": 17.0, "unit": "%"},
      {"measurement": "AUC0–60 min gall bladder", "setting": "MCTs [2]; 25 mg/kg", "value": 486, "unit": "SUV min"},
      {"measurement": "AUC0–60 min kidney cortex", "setting": "MCTs [2]; 25 mg/kg", "value": 153, "unit": "SUV min"},
      {"measurement": "AUC0–60 min liver", "setting": "MCTs [2]; 25 mg/kg", "value": 417, "unit": "SUV min"},
      {"measurement": "AUC0–60 min small intestine", "setting": "MCTs [2]; 25 mg/kg", "value": 180, "unit": "SUV min"},
      {"measurement": "AUC0–60 min whole blood", "setting": "MCTs [2]; 25 mg/kg", "value": 63, "unit": "SUV min"},
      {"measurement": "decrease of kidney cortex SUV", "setting": "MCTs [8]; mice, 5 min after i.v. α-CCA-Na 25 mg/kg given 20 min after tracer", "value": 66, "unit": "%"},
      {"measurement": "kidney cortex SUV", "setting": "MCTs [8]; mouse, in vivo", "value": "1.41 ± 0.36"},
      {"measurement": "displacement of [18F]FACH", "setting": "MCTs [3]", "value": 8, "unit": "%"},
      {"measurement": "BPND = k3/k4 (2-TCM)", "setting": "MCTs [9]", "value": "12.96±5.40 1/1"},
      {"measurement": "rate constant for elimination of radio-metabolites from plasma (k−1)", "setting": "[10]", "value": "0.020 ± 0.003", "unit": "min⁻¹"},
      {"measurement": "specifically bound radiotracer displaced", "setting": "MCTs [11]", "value": "around 50%"},
      {"measurement": "selectivity for MCT1 (MCT1/4) compared to the other subtypes", "setting": "MCT1 [5]", "value": 10, "unit": "fold"}
    ]}
  ]
}
